Measurements as given in patent US20170368089A1, “COMPOSITION FOR PREVENTING OR TREATING COLITIS” (UNIVERSITY-INDUSTRY COOPERATION GROUP OF KYUNG HEE …, priority 2012, published 2017).

Key:
TNF-alpha [1] = assay: TNF-alpha expression in colon tissue (ELISA), TNBS colitis, second experiment; type: in vivo, ICR male mice; settings: Table 9, extract-based samples, TNBS-treated mice, 10 mg/kg orally, 3 days
Protocol: Among the experimental groups, one group was set as a normal group, and for the experimental animals in other groups, colitis was induced with 2,4,6-trinitrobenzenesulfonic acid (TNBS). In detail, after lightly anesthetizing the experimental animals with ether, 0.1 ml of the solution prepared by mixing […] of 2,4,6-Trinitrobenzene sulfonic acid (NBS) solution with 50% ethanol was injected into the colon through the anus using a syringe having 1 ml volume and oval point, respectively; and then, the syringe was vertically picked up, and then, maintained for 30 seconds to induce the inflammation. Meanwhile, 0.1 ml of normal saline solution was orally administered to the normal group. Since then, from the next day, the sample dissolved in normal saline solution was orally administered in the volume that was decided in advance one time a day for 3 days. […]
250 μl of RIPA butter including protease inhibitor cocktail was added to 100 mg of the colon tissue of experimental animal, and then, the colon tissue was homogenized. […] While the supernatant was stored at −80° C., the expression amounts of IL-1 beta, IL-6, and TNF-alpha were measured using a 96-well ELISA plate kits (Pierce Biotechology, Inc., Rockford, Ill., USA).

Myeloperoxidase (MPO) [2] = assay: MPO activity of colon tissue, TNBS acute colitis, third experiment; type: in vivo, male mice (C57BL/6); settings: Table 12; TNBS-treated mice, 10 mg/kg orally, 3 days
Protocol: Meanwhile, 0.1 ml of normal saline solution was orally administered to the normal group. Since then, from the next day, the sample dissolved in normal saline solution was orally administered in the volume that was decided in advance one time a day for 3 days. At the next day after completing the sample administration, the experimental animals were suffocated to death with carbon dioxide, and the colon from appendix to the region just before the anus was removed from the colon region. At this time, as a medicine sample, the experiments using the butanol-soluble fraction of the Anemarrhena asphodeloides Bunge extract, Mangiferin, and a combined extract were separately performed at a distance of time, respectively, and the effects of the medicine samples on preventing or treating colitis were reasonably analyzed based on the group supplied with normal saline solution instead of a specific medicine in the model animals with acute colitis induced by TNBS for each of the experiments. […] Since then, the homogenized colon tissue was centrifuged under the conditions of 4° C. and 13000 rpm for 15 minutes, and then, the supernatant thereof was obtained. […] Since then, 100 μl of a stop solution was added to stop the reaction, and then, the absorbance was measured at 450 nm using an ELISA reader.

TNF-alpha [3] = assay: TNF-alpha expression in colon tissue (ELISA), TNBS colitis, first experiment; type: in vivo, ICR male mice; settings: Table 4 (group 1), TNBS-treated mice, 10 mg/kg orally, 3 days
Protocol: (§1) Among the experimental groups, one group was set as a normal group, and for the experimental animals in other groups, colitis was induced with 2,4,6-trinitrobenzenesulfonic acid (TNBS). In detail, after lightly anesthetizing the experimental animals with ether, 0.1 ml of the solution prepared by mixing […] of 2,4,6-Trinitrobenzene sulfonic acid (NBS) solution with 50% ethanol was injected into the colon through the anus using a syringe having 1 ml volume and oval point, respectively; and then, the syringe was vertically picked up, and then, maintained for 30 seconds to induce the inflammation. Meanwhile, 0.1 ml of normal saline solution was orally administered to the normal group. Since then, from the next day, the sample dissolved in normal saline solution was orally administered in the volume that was decided in advance one time a day for 3 days. At the next day after completing the sample administration, the experimental animals were suffocated to death with carbon dioxide, the colon from appendix to the region just before the anus was removed from the colon region.
250 μl of RIPA butter including protease inhibitor cocktail was added to 100 mg of the colon tissue of experimental animal, and then, the colon tissue was homogenized. Since then, the homogenized colon tissue was centrifuged under the conditions of 4° C. and 13000 rpm for 15 minutes to obtain supernatant. While the supernatant was stored at −80° C., the expression amounts of IL-1 beta, IL-6, and TNF-alpha were measured using a 96-well ELISA plate kits (Pierce Biotechology, Inc., Rockford, Ill., USA).

Myeloperoxidase (MPO) [4] = assay: MPO activity of colon tissue (mouse MPO ELISA kit), TNBS colitis, first experiment; type: in vivo, ICR male mice; settings: TNBS-treated mice, 10 mg/kg orally, 3 days
Protocol: as §1
200 μl of lysis buffer was added to 100 mg of colon tissue, and then, the colon tissue was homogenized. Since then, the homogenized colon tissue was centrifuged under the conditions of 4° C. and 13000 rpm for 15 minutes, and then, the supernatant thereof was obtained. In the supernatant, the MPO activity was measured using a mouse MPO assay ELISA kit (Hbt HK210, USA). 100 μl of the supernatant was added in a 96 well plate, and then, reacted at room temperature for 1 hour. After completing the reaction, the plate was overturned and emptied; was repeatedly washed three times with 200 μl of washing buffer solution; 100 μl of diluted tracer was added thereto; and then the reaction was performed at room temperature for 1 hour. After completing the reaction, the plate was overturned and emptied; and then each well in the plate was washed using 200 μl of washing buffer solution. After repeatedly performing the washing processes three times using 200 μl of washing buffer solution, 100 μl of diluted streptavidin-peroxidase conjugate was added thereto, and then, the reaction was performed at room temperature for 1 hour. After completing the reaction, the plate was overturned and emptied, and then, each well in the plate was washed with 200 μl of washing buffer solution. After the washing processes were repeatedly performed three times using 200 μl of washing buffer solution, 100 μl of TMB substrate solution was added thereto; the plate was wrapped in an aluminum foil to block out the light; and then, the reaction was performed at room temperature for 30 minutes. Since then, 100 μl of a stop solution was added to stop the reaction, and then, the absorbance was measured at 450 nm using an ELISA reader.

With `Nc1ccc(O)c(C(=O)O)c1` [mesalazine, Mesalazine] the TNF-alpha conc. (TNF-alpha [1]) was 23.79 ± 2.82 pg/mg, the “MPO activity (Percentage to group supplied with normal saline solution after treating TNBS)” value (Myeloperoxidase (MPO) [2]) was 47.8% and the TNF-alpha conc. (TNF-alpha [3]) was 26.1 ± 8.8 pg/mg. The MPO activity (Myeloperoxidase (MPO) [4]; Table 2 (group 1)) was 1.8 ± 0.2 μUnit/mg and the MPO activity (Myeloperoxidase (MPO) [4]; Table 3 (group 2)) was 0.2 ± 0.1 μUnit/mg.
